In patent US12234258B2, “Timosaponin compounds” (priority 2012, dated 2025):
Read-outs that look alike come from different tables or passages of the source. One block for each compound: values may come before it.

Assays:
Format in all cases: cell-based
[1] = tested on: Aβ1-42 production in SweAPP N2A cells (N2A-APPswe); assay: Aβ1-42 ELISA of conditioned medium of SweAPP N2A cells
Description: Neuro-2A cells expressing Swedish mutants of (“SweAPP N2A cells”) was cultured in minimal essential medium with glutamine (2 mM), pyruvate (2 mM) and fetal bovine serum (10%). Cells were seeded at 6-well plate at 1×10^6 cells/mL and grown overnight. The medium was replaced.
Conditioned medium was diluted with 2 part volume of ELISA diluents. Aβ1-42 concentrations were determined by using human Aβ1-42 ultrasensitive ELISA kit (manufactured by Invitrogen).
Cell culture: Neuro-2A cells expressing Swedish mutants of APP (N2A-APPswe) ENREF 12 was cultured in minimal essential medium with 2 mM glutamine, 2 mM pyruvate and 10% fetal bovine serum. Cells were seeded at 6-well plate at 1×10^6 cells/mL and grown for two days until confluence. The medium was replaced and the test compounds were added at indicated concentrations for 24 hr.

[2] = tested on: NCI-H460, human non-small lung carcinoma cells; assay: Growth of cancer cell lines: NCI-H460; settings: mean ± S.D., n = 3; read-out: IC50 against growth of NCI-H460
[3] = tested on: HeLa, human cervical carcinoma cells; assay: Growth of cancer cell lines: HeLa; settings: mean ± S.D., n = 3; read-out: IC50 against growth of HeLa
[4] = tested on: Aβ42, Aβ40 and Aβ38 in N2A-APPswe cells; assay: Aβ42, Aβ40 and Aβ38 profiles in conditioned medium by ELISA; settings: FIG. 18, 18 hr
Description: Aβ ELISA: Aβ concentrations in conditioned medium were assayed using ELISA kits for human Aβ40, human Aβ42 (ultrasensitive) (Invitrogen) and Aβ38 (MyBioSource).
Cells were treated with various concentrations of (TAIII/TAI/AA/TAV) and DMSO vehicle (C) for 18 hr. In part A of FIG. 18, the expression of full length (FL) and CTF (c99 and c83) in cell lysates and secreted APP (sAPPα and sAPPP) in the conditioned medium were examined by immunoblot using methods specified in Example 6. In part B of FIG. 18, the profiles of Aβ42, Aβ40 and Aβ38 in the conditioned medium were determined by ELISA using methods specified in Example 5.

[5] = tested on: SW480, human colon adenocarcinoma cells; assay: Growth of cancer cell lines: SW480; settings: mean ± S.D., n = 3; read-out: IC50 against growth of SW480
Neuro-2A cells = assay: Neurite outgrowth of N2A cells; settings: FIG. 19; TAIII 5 μM, TAI 10 μM, SSG 25 μM, 18 hr, type III β-tubulin staining
Description: Immunofluorescence examination of neurite outgrowth: Neuro-2A cells were seeded at 1×10^5 cells per glass bottom dish. After treatment, cells were fixed with 4% paraformaldyde for 10 min, permeabilized with 0.1% Trition X-100, and then blocked with 1% BSA in PBS. The cells were incubated with monoclonal antibody raised against type III β-tubulin (Sigma) for 1 hr followed by Alexa488 conjugated secondary antibody. Neurite morphology was examined under fluorescence microscope.

[6] = tested on: HepG2, human hepatoma cells; assay: Growth of cancer cell lines: HepG2; settings: mean ± S.D., n = 3; read-out: IC50 against growth of HepG2
[7] = tested on: Notch cleavage by γ-secretase in N2A-APPswe cells; assay: Notch cleavage by γ-secretase (NotchΔE/NICD immunoblot); settings: FIG. 20; at concentrations that effectively lower Aβ levels, 18 hr
Description: Immunoblot analysis: Cells were washed with phosphate buffered saline and lysed with buffer containing 50 mM Tris-Cl, pH 7.4, 150 mM NaCl, 1% Triton X-100 supplemented with protease inhibitors. Equal amount of proteins (30 μg) was resolved by 16.5% Tris-tricine gels and then transferred to nitrocellulose membrane with 0.2 µm pore size. For detection of secreted Aβ, sAPPα and sAPPβ, cells were treated with the timosaponins for 8 hr in complete medium which were then replaced with medium containing 0.1% FBS. After further incubation of 16 hr, 50 μL of the conditioned medium was mixed with SDS sample buffer and resolved accordingly. The membrane was blocked with Tris-buffered saline containing 0.1% TWEEN® 20 and 3% BSA and then incubated with primary antibodies at 4° C. overnight, followed with appropriate secondary antibodies for 2 hr. The primary antibodies were: APP c-terminal rabbit antibody (1:5000; Merck Bioscience) for detection of full length APP and APP-CTFs, mouse monoclonal 6E10 (Covance) for secreted Aβ and sAPPα, mouse monoclonal 6A1 (IBL) for sAPPβswe, ADAM-10 rabbit antibody (Millipore) and BACE1 rabbit antibody (Millipore). The immunoreactivities were detected using enhanced chemiluminescence reagents (GE Health care). […]

[8] = Table 4, N2A-APPswe cells, mean ± S.D, n ≥ 3, read-out: IC50 in lowering Aβ42 production
[9] = N2a-APPswe, read-out: IC50 in lowering Aβ42 production
[10] = Example 7, SweAPP N2A cells, Aβ1-42 ELISA, read-out: IC50, inhibition of Aβ production

SMILES: C[C@@H]1CC[C@@]2(OC1)O[C@H]1C[C@H]3[C@@H]4C[C@H](O)[C@H]5C[C@@H](O)CC[C@]5(C)[C@H]4CC[C@]3(C)[C@H]1[C@@H]2C [5α-H, 6α-OH diosgenin]
IC50 [1, 8]: > 100 µM

SMILES: C[C@H]1CC[C@@]2(OC1)O[C@H]1C[C@H]3[C@@H]4C[C@H](O)[C@H]5C[C@@H](O)CC[C@]5(C)[C@H]4CC[C@]3(C)[C@H]1[C@@H]2C [5α-H, 6α-OH yamogenin]
IC50 [1, 8]: > 100 µM

SMILES: C[C@@H]1CC[C@@]2(OC1)O[C@H]1C[C@H]3[C@@H]4C[C@@H](O)[C@@H]5C[C@@H](O)CC[C@]5(C)[C@H]4CC[C@]3(C)[C@H]1[C@@H]2C [5β-H, 6β-OH diosgenin]
IC50 [1, 8]: > 100 µM

SMILES: C[C@H]1CC[C@@]2(OC1)O[C@H]1C[C@H]3[C@@H]4C[C@@H](O)[C@@H]5C[C@@H](O)CC[C@]5(C)[C@H]4CC[C@]3(C)[C@H]1[C@@H]2C [5β-H, 6β-OH yamogenin]
IC50 [1, 8]: 45 ± 4 µM

SMILES: C[C@H]1CC[C@@]2(OC1)O[C@H]1C[C@H]3[C@@H]4CC[C@@H]5C[C@@H](O[C@@H]6O[C@H](CO)[C@@H](O)[C@H](O)[C@H]6O)CC[C@]5(C)[C@H]4CC[C@]3(C)[C@H]1[C@@H]2C [Asparagoside A]
IC50 [2]: 14.1 ± 0.64 µM
IC50 [3]: 65.4 ± 20.9 µM
Aβ profile (Aβ42 vs Aβ40 and Aβ38) [4]: preferentially lower Aβ42 production
IC50 [5]: 15.6 ± 1.96 µM
Neurite outgrowth (Neuro-2A cells): significant extension and branching of neurites
IC50 [6]: 7.72 ± 2.68 µM
IC50 [1, 8]: 6 ± 1.4 µM

IC50 [1, 8]: > 100 µM
SMILES: C[C@@H]1CC[C@@]2(OC1)O[C@H]1C[C@H]3[C@@H]4CC=C5C[C@@H](O[C@@H]6O[C@H](CO)[C@H](O)[C@H](O)[C@H]6O)CC[C@]5(C)[C@H]4CC[C@]3(C)[C@H]1[C@@H]2C [Capsicoside A3]

SMILES: CC(CO)CCC1OC2CC3C4CCC5CC(O)CCC5(C)C4CCC3(C)C2C1C (stereo not shown) [Dihydrosarsasapogenin]
IC50 [1, 8]: > 100 µM

IC50 [1, 8]: > 100 µM
SMILES: C[C@@H]1CC[C@@]2(OC1)O[C@H]1C[C@H]3[C@@H]4CC=C5C[C@@H](O)CC[C@]5(C)[C@H]4CC[C@]3(C)[C@H]1[C@@H]2C [Diosgenin]

SMILES: C[C@H]1CC[C@@]2(OC1)O[C@H]1C[C@H]3[C@@H]4CC[C@@H]5C[C@H](O)CC[C@]5(C)[C@H]4CC[C@]3(C)[C@H]1[C@@H]2C [Episarsasapogenin]
IC50 [1, 8]: > 100 µM

IC50 [1, 8]: > 100 µM
SMILES: CC(C)[C@@H](C)/C=C/[C@@H](C)[C@H]1CC[C@H]2C3=CC=C4C[C@@H](O)CC[C@]4(C)[C@H]3CC[C@]12C [Ergosterol, reference compound]

SMILES: C[C@H]1CC[C@@]2(OC1)O[C@H]1C[C@H]3[C@@H]4CC[C@@H]5C[C@@H](OCC(=O)O)CC[C@]5(C)[C@H]4CC[C@]3(C)[C@H]1[C@@H]2C [Ethereal SSG]
Notch processing (NotchΔE and NICD) [7]: did not affect the Notch processing
IC50 [1, 9]: 27 ± 8 µM

SMILES: C[C@H]1CC[C@@]2(OC1)O[C@H]1C[C@H]3[C@@H]4CC[C@H]5C[C@@H](O)CC[C@]5(C)[C@H]4CC[C@]3(C)[C@H]1[C@@H]2C [Neotigogenin]
IC50 [1, 9]: > 100 µM

SMILES: C[C@H]1CC[C@@]2(OC1)O[C@H]1C[C@H]3[C@@H]4CC[C@@H]5C[C@@H](O)CC[C@]5(C)[C@H]4CC[C@]3(C)[C@H]1[C@@H]2C [Sarsasapogenin]
IC50 [2]: 19.2 ± 0.45 µM
IC50 [3]: 50 ± 2 µM
IC50 [5]: 29.4 ± 5.09 µM
Neurite outgrowth (Neuro-2A cells): significant extension and branching of neurites
Notch processing (NotchΔE and NICD) [7]: did not affect the Notch processing
IC50 [6]: 32.6 ± 4.58 µM
IC50 [1, 10]: ~20 µM
IC50 [1, 8]: 53 ± 9 µM

SMILES: C[C@@H]1CC[C@@]2(OC1)O[C@H]1C[C@H]3[C@@H]4CC[C@@H]5CC(=O)CC[C@]5(C)[C@H]4CC[C@]3(C)[C@H]1[C@@H]2C [Sarsasapogenone]
IC50 [1, 8]: 50 ± 5 µM

SMILES: C[C@@H]1CC[C@@]2(OC1)O[C@H]1C[C@H]3[C@@H]4CC[C@@H]5C[C@@H](O)CC[C@]5(C)[C@H]4CC[C@]3(C)[C@H]1[C@@H]2C [Smilagenin]
IC50 [1, 9]: > 100 µM

SMILES: C[C@@H]1CC[C@@]2(OC1)O[C@H]1C[C@H]3[C@@H]4CC[C@H]5C[C@@H](O)CC[C@]5(C)[C@H]4CC[C@]3(C)[C@H]1[C@@H]2C [Tigogenin]
IC50 [1, 9]: > 100 µM

IC50 [2]: 10.2 ± 4.64 µM
IC50 [3]: 44.5 ± 1.15 µM
IC50 [5]: 12.1 ± 3.83 µM
IC50 [6]: 10.5 ± 4.64 µM
IC50 [1, 10]: ~20 µM
IC50 ([1]; Example 9, SweAPP N2A cells, Aβ1-42 ELISA, read-out: ICS50, inhibitor of Aβ production): 5 µM
IC50 [1, 8]: 6.1 ± 2.8 µM
SMILES: C[C@H]1CC[C@@]2(OC1)O[C@H]1C[C@H]3[C@@H]4CC[C@@H]5C[C@@H](O[C@@H]6O[C@H](CO)[C@H](O)[C@H](O)[C@H]6O)CC[C@]5(C)[C@H]4CC[C@]3(C)[C@H]1[C@@H]2C [Timosaponin AI]
Aβ profile (Aβ42 vs Aβ40 and Aβ38) [4]: preferentially lower Aβ42 production
Neurite outgrowth (Neuro-2A cells): significant extension and branching of neurites

IC50 [2]: 20 ± 0.71 µM
IC50 [3]: 21.6 ± 5.2 µM
IC50 [5]: 21.7 ± 2.27 µM
IC50 [6]: 17.4 ± 4.29 µM
IC50 [1, 8]: 4.2 ± 1.2 µM
SMILES: C[C@H]1CC[C@@]2(OC1)O[C@H]1C[C@H]3[C@@H]4CC[C@@H]5C[C@@H](O[C@@H]6O[C@H](CO)[C@H](O[C@@H]7O[C@H](CO)[C@@H](O)[C@H](O)[C@H]7O)[C@H](O)[C@H]6O[C@@H]6O[C@H](CO)[C@@H](O)[C@H](O)[C@H]6O)CC[C@]5(C)[C@H]4CC[C@]3(C)[C@H]1[C@@H]2C [Timosaponin AV]
Aβ profile (Aβ42 vs Aβ40 and Aβ38) [4]: preferentially lower Aβ42 production

SMILES: C[C@@H](CC[C@@]1(O)O[C@H]2C[C@H]3[C@@H]4CC[C@@H]5C[C@@H](O[C@@H]6O[C@H](CO)[C@H](O)[C@H](O)[C@H]6O[C@@H]6O[C@H](CO)[C@@H](O)[C@H](O)[C@H]6O)CC[C@]5(C)[C@H]4CC[C@]3(C)[C@H]2[C@@H]1C)CO[C@@H]1O[C@H](CO)[C@@H](O)[C@H](O)[C@H]1O [Timosaponin BII]
IC50 [2]: > 100 µM
IC50 [3]: > 100 µM
IC50 [5]: > 100 µM
IC50 [6]: > 100 µM

IC50 [2]: > 100 µM
IC50 [3]: > 100 µM
IC50 [5]: > 100 µM
IC50 [6]: > 100 µM
IC50 [1, 8]: > 100 µM
SMILES: CO[C@]1(CC[C@H](C)CO[C@@H]2O[C@H](CO)[C@@H](O)[C@H](O)[C@H]2O)O[C@H]2C[C@H]3[C@@H]4CC[C@@H]5C[C@@H](O[C@@H]6O[C@H](CO)[C@H](O)[C@H](O)[C@H]6O[C@@H]6O[C@H](CO)[C@@H](O)[C@H](O)[C@H]6O)CC[C@]5(C)[C@H]4CC[C@]3(C)[C@H]2[C@@H]1C [Timosaponin BI]

IC50 [1, 8]: > 100 µM
SMILES: C[C@H]1CC[C@@]2(OC1)O[C@H]1C[C@H]3[C@@H]4CC=C5C[C@@H](O)CC[C@]5(C)[C@H]4CC[C@]3(C)[C@H]1[C@@H]2C [Yamogenin]
